We go through two molecules from ChEMBL document CHEMBL1137441, “Carbonic anhydrase inhibitors: the inhibition profiles of the human mitochondrial isoforms VA and VB with anions are very different” (Bioorg Med Chem, 2007).

Assay [1] has as its target Carbonic anhydrase 5A, mitochondrial (Homo sapiens) (UniProt P35218). As to the kind of experiment: Inhibition of human mitochondrial CA5A by CO2 hydration assay.
Assay [2] addresses Carbonic anhydrase 5B, mitochondrial (Homo sapiens) (UniProt Q9Y2D0).
Description: Inhibition of human mitochondrial CA5B by CO2 hydration assay

Carbonic anhydrase 5A, mitochondrial (Homo sapiens), sequence (P35218 whole entry): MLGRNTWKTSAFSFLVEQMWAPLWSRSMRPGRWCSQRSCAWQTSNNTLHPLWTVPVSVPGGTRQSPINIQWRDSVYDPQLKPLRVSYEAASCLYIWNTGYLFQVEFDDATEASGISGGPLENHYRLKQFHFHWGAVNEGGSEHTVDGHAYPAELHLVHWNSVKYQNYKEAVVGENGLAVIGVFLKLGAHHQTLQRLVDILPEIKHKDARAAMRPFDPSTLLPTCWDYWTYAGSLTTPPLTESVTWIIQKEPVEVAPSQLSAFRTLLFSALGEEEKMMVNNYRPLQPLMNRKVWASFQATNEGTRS
Carbonic anhydrase 5B, mitochondrial (Homo sapiens), sequence (Q9Y2D0 whole entry): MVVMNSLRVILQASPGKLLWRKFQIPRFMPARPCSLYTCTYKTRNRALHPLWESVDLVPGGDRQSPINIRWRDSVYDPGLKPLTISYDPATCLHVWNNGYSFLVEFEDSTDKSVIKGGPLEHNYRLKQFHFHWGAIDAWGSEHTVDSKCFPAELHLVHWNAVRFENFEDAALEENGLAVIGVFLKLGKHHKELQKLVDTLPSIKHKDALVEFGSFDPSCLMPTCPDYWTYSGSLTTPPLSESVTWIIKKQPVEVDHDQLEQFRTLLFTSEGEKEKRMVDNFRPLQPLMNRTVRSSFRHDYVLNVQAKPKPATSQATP

For `OB(O)c1ccccc1`, the Kinact in assay [1] was 1.04 mM.
On to `O=[As](O)(O)c1ccccc1`, for which the values for the Kinact in assay [1] and in assay [2] were 1.02 mM and 0.082 mM, respectively.
